In PMC11219871, “Epigenetic-based differentiation therapy for Acute Myeloid Leukemia” (Nature Communications, 2024):

Key:
[1] = test system: HL-60; assay: Cell proliferation assay: GI50; type: cell-based, human; settings: 48 h; read-out: HL-60 GI50
Method: Cell proliferation was analyzed using the CellTiter 96 Aqueous One Solution Cell Proliferation Assay (Promega, Madison, WI). This is a colorimetric method for determining the number of viable cells in proliferation. For the assay, suspension cells were cultured in triplicate at a density of 1 × 10^6 cells/mL in 96-well plates (100.000 cells/well, 100 µL/well), using only the 60 inner wells to avoid any border effects. […] Then, the cells were incubated with 100 μL/well of medium and 20 μL/well of CellTiter 96 Aqueous One Solution reagent for 1–3 h. […] The background absorbance was measured in wells with only cell line medium and solution reagent. First, the average of the absorbance from the control wells was subtracted from all other absorbance values. Data were calculated as the percentage of total absorbance of treated cells/absorbance of non-treated cells. The GI50 values of the different compounds were determined using non-linear regression plots made with GraphPad Prism v5 software.

[2] = test system: HL-60; assay: Differentiation-apoptosis assay, CD11b / annexin-V / Sytox Green / myeloid markers flow cytometry; type: cell-based, human; settings: HL-60, daily 25% GI50, 48 h; for Annexin V + (%) / CD11b+ (%): mean of three
Method: Next, the cells were washed twice with phosphate-buffered saline (PBS) and resuspended in 1X Binding Buffer at a concentration of 1 × 10^6 cells/mL. […] Finally, after the addition of 400 µL of 1X Binding Buffer to each tube, samples were collected on a BD FACSCanto flow cytometer (Becton Dickinson, San Jose, CA, USA) and analyzed using FlowJo software.
Then, 1 million cells (volume of 250 µL) were added and incubated for 30 min at room temperature in darkness. After 10 min incubation at room temperature with 2 mL of FACSLysing 1X, cells were centrifuged at 540 g for 5 min and washed twice with FACSBuffer. Finally, after centrifugation at 540 g for 5 min cells were resuspended in FACSBuffer.

[3] = target: HDAC1 (Homo sapiens, UniProt Q13547); assay: HDAC enzymatic assay, fluorescence-labeled substrate; type: biochemical; settings: read-out: HDAC1 IC50
Sequence of HDAC1 (Q13547 whole entry): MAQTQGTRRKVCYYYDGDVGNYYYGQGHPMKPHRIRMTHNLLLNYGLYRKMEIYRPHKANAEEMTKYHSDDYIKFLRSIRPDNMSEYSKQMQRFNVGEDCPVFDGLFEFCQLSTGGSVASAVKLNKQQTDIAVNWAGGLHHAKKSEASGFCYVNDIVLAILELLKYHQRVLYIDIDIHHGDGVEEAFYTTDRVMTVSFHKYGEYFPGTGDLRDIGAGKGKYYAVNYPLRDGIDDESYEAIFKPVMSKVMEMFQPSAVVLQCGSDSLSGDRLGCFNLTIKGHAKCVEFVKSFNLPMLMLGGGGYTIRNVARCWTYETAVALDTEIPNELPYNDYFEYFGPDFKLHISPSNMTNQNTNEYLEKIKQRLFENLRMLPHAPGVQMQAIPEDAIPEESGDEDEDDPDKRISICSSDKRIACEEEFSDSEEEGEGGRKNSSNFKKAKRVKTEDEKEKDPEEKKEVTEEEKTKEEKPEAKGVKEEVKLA

[4] = target: T1, HDAC6 (Homo sapiens, UniProt Q9UBN7); assay: as above; type: biochemical; settings: read-out: HDAC6 IC50
T1 sequence (Q9UBN7 1-1215): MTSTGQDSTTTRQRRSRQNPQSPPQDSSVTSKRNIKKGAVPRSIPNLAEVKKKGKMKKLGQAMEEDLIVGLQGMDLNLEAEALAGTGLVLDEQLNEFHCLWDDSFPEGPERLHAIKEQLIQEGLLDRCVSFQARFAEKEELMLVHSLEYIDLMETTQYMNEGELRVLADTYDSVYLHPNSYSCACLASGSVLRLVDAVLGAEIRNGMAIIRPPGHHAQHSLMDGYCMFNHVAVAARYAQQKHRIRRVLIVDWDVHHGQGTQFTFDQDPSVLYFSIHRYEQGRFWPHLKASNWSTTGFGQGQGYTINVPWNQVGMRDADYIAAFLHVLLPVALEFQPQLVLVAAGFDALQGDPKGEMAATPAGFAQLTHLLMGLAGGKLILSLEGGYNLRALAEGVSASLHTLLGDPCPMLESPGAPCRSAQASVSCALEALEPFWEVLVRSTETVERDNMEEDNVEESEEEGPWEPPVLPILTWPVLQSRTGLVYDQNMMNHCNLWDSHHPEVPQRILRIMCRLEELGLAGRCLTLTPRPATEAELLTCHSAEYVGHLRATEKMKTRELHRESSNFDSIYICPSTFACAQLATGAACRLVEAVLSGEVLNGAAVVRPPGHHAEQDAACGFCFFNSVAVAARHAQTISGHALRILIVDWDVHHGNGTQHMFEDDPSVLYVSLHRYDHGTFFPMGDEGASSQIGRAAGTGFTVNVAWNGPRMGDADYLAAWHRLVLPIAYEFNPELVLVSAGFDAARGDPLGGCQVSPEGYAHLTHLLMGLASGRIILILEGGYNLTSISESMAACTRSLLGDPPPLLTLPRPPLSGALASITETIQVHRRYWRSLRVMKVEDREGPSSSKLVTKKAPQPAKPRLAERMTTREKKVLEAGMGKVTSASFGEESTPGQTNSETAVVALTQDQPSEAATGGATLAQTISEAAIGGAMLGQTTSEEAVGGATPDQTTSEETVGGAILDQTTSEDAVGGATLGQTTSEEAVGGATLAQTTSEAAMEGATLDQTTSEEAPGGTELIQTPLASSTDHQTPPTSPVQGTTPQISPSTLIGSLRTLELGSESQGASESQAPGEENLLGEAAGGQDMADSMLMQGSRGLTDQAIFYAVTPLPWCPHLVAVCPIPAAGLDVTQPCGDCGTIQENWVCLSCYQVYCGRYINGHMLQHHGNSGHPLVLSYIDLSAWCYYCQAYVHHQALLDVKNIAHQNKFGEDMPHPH

SMILES	GI50 [1] [µM]	Annexin V (%) Replicate 1 [2] [%]	Annexin V (%) Replicate 2 [2] [%]	Annexin V (%) Replicate 3 [2] [%]	CD11b (%) Replicate 1 [2] [%]	CD11b (%) Replicate 2 [2] [%]	CD11b (%) Replicate 3 [2] [%]	Annexin V + (%) [2] [%]	CD11b+ (%) [2] [%]	IC50 [3] [µM]	IC50 [4] [µM]
COc1cc2c(NCC3CCN(C)CC3)cc(-c3ccc(C)o3)nc2cc1OCCCN1CCCC1 [CM-579]	> 10	0.00	0.00	0.00	0.00	0.00	0.00	0.00	0.00	> 20	> 20
COc1cc2c(NC3CCN(C)CC3)cc(-c3ccc(C)o3)nc2cc1OCCCN1CCCC1 [CM-272]	2.9	1.02	1.64	1.88	1.50	0.87	0.44	1.51	0.94	> 20	> 20
